Laboratory results: US20230081132A1 (priority 2021, published 2023)
≈ marks a conversion by molar mass, not a printed value. Where “and” joins values, the source holds several entries; their conditions need not be identical. Equal values may be shown once.

Assays:
Format in all cases: binding
[1] = system: TTX monoclonal antibody
[2] = system: TTX monoclonal antibody; remark: listed apart in the source
[3] = system: TTX monoclonal antibody; remark: listed apart in the source

Compound | FLT (a.u.) [1] | IC50 [2] | competitive inhibition rate (1-T/T0) [3] | fluorescence signal value of detection line [3]
C/C(=C/C=C/[C@@H](C)C(=O)O)[C@H]1CN[C@H](C(=O)O)[C@H]1CC(=O)O [DA] | 503422 a.u. and 504729 a.u. and 501687 a.u. and 506770 a.u. and 503922 a.u. and 508625 a.u. | – | – | –
NC1=N[C@H](O)[C@H]2[C@H]3O[C@]4(O)O[C@@H]([C@@H](O)[C@@]2(N1)[C@@H]4O)[C@]3(O)CO [TTX, Tetrodotoxin] | – | 1.713 ng/mL (≈ 5.37 nM) | 0.3 | 343000 a.u.
MC-LR | 452864 a.u. and 478692 a.u. and 475179 a.u. and 469265 a.u. and 465390 a.u. and 480375 a.u. | – | – | –
